Measured values published in patent US20260158017A1, “KIF18A INHIBITOR” (WIGEN BIOMEDICINE TECHNOLOGY (SHANGHAI) CO., LTD., priority 2021, published 2026).

biological target: T1, Recombinant human KIF18A (1-467His-tagged) protein (Homo sapiens, UniProt Q8NI77); assay: KIF18A enzyme assay (microtubule-stimulated ATPase activity, ADP-Glo); format: biochemical; details: 30 nM KIF18A, 75 μM ATP, 30 μg/mL pig microtubules; read-out: Inhibitory activity against KIF18A IC50
T1 construct: Recombinant human KIF18A (1-467His-tagged) protein; His; made in house
Procedure, shortened: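 Buffer 15 mM Tris pH 7.5, 10 mM MgCl2, 0.01% Pluronic F-68, 1 μM paclitaxel, 30 μg/mL pig microtubules; reactions at room temperature. IC50 from inhibition relative to DMSO.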

T1 sequence (Q8NI77 1-467): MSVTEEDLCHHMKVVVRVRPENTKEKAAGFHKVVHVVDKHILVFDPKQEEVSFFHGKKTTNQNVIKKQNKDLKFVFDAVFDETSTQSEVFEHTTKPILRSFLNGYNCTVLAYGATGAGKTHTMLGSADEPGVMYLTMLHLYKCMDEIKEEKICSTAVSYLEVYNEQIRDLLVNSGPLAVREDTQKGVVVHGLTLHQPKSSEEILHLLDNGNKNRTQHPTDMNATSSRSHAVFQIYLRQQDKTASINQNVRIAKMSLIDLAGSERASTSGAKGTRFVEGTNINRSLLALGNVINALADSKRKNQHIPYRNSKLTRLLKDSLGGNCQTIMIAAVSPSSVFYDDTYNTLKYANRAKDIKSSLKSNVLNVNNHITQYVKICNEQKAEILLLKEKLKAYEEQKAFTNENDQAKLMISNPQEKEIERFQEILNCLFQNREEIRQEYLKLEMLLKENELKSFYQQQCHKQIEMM
T1 sequence (P02550 whole entry partner): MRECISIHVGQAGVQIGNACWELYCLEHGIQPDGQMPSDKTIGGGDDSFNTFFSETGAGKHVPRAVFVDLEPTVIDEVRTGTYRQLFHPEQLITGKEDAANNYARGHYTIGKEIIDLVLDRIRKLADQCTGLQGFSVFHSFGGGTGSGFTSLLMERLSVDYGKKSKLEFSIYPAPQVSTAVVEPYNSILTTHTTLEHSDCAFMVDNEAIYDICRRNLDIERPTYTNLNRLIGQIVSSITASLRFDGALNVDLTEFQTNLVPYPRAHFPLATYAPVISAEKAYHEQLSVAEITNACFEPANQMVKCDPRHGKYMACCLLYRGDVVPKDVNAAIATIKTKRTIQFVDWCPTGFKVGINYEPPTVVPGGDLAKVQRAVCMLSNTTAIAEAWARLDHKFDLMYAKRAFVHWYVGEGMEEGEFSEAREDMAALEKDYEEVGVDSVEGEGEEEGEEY
T1 sequence (P02554 whole entry partner): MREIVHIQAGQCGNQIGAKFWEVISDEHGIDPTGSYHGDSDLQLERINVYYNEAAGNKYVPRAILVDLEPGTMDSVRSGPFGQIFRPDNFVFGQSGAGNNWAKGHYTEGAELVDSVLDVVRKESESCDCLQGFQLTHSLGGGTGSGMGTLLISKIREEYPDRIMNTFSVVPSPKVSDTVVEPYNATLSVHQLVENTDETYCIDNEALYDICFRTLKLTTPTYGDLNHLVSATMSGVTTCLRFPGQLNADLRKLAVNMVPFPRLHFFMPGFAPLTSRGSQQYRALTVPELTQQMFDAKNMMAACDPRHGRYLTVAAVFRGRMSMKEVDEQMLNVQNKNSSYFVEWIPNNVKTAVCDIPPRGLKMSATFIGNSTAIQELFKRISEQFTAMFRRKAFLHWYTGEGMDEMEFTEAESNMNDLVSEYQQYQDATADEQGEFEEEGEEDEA

| SMILES | IC50 [nM] |
| --- | --- |
| C[C@@H]1CN(c2nc(C(=O)Nc3cnc(S(=O)(=O)N[C@@H](C)CO)cc3N3CCC4(CC3)CC4)ccc2[N+](=O)[O-])CCO1 [Compound 255] | 100 to 500 |
| O=C(Nc1cnc(S(=O)(=O)NCCO)cc1N1CCC2(CC1)CC2)c1ccc([N+](=O)[O-])c(N2CC(F)(F)C2)n1 [Compound 244] | 100 to 500 |
| CC1(F)CCN(c2nc(C(=O)Nc3ccc(S(=O)(=O)NCCO)cc3N3CCC4(CC3)CC4)ccc2[N+](=O)[O-])C1 (stereo not shown) [Compound 184] | 100 to 500 |
| O=C(Nc1cnc(S(=O)(=O)NCCO)cc1N1CCC2(CC1)CC2)c1ccc([N+](=O)[O-])c(N2CCC3(CC3)C2)c1 [Compound 214] | 100 to 500 |
| COc1ccc(NC(=O)c2ccc(S(=O)(=O)NCCO)cc2N2CCC3(CC2)CC3)nc1N1CCC(F)CC1 [Compound 281] | ≤ 100 |
| CC1(F)CCN(c2cc(C(=O)Nc3ccc(NS(=O)(=O)CCO)cc3N3CCC4(CC3)CC4)ccc2[N+](=O)[O-])C1 (stereo not shown) [Compound 40] | ≤ 100 |
| C[C@@H]1CN(c2nc(NC(=O)c3ccc(S(=O)(=O)N[C@@H](C)CO)cc3N3CCC4(CC3)CC4)ccc2[N+](=O)[O-])CCO1 [Compound 95] | ≤ 100 |
| O=C(Nc1cnc(NS(=O)(=O)CCO)cc1N1CCC2(CC1)CC2)c1ccc([N+](=O)[O-])c(OCCC(F)(F)F)n1 [Compound 229] | ≤ 100 |
| C[C@H](CO)S(=O)(=O)Nc1ccc(C(=O)Nc2ccc([N+](=O)[O-])c(N3CCC(F)(F)CC3)n2)c(N2CCC3(CC2)CC3)c1 [Compound 78] | ≤ 100 |
| O=C(Nc1ccc([N+](=O)[O-])c(N2CCOCC2)c1)c1cnc(NS(=O)(=O)CCO)cc1N1CCC2(CC1)CC2 [Compound 108] | ≤ 100 |
| COc1ccc(C(=O)Nc2cnc(S(=O)(=O)NCCO)cc2N2CCC3(CC2)CC3)nc1N1CCO[C@H](C)C1 [Compound 370] | ≤ 100 |
| CSc1ccc(NC(=O)c2ccc(NS(=O)(=O)[C@H](C)CO)cc2N2CCC3(CC2)CC3)cc1N1CCC(F)(F)CC1 [Compound 590] | ≤ 100 |
| C[C@H]1CN(c2nc(NC(=O)c3cnc(NS(=O)(=O)CCO)cc3N3CCC4(CC3)CC4)ccc2[N+](=O)[O-])CCO1 [Compound 131] | ≤ 100 |
| O=C(Nc1ccc(S(=O)(=O)NCCO)cc1N1CCC2(CC1)CC2)c1ccc(OCF)c(N2CCOCC2)c1 [Compound 540] | 100 to 500 |
| O=C(Nc1ccc([N+](=O)[O-])c(N2CC(F)(F)C2)c1)c1cnc(NS(=O)(=O)CCO)cc1N1CCC2(CC1)CC2 [Compound 100] | ≤ 100 |
| CC(C)(CO)Nc1nc(NC(=O)c2cnc(S(=O)(=O)NCCO)cc2N2CCC3(CC2)CC3)ccc1[N+](=O)[O-] [Compound 155] | ≤ 100 |
| COc1ccc(C(=O)Nc2cnc(NS(=O)(=O)CCO)cc2N2CCC3(CC2)CC3)nc1N1CC(F)(F)C1 [Compound 356] | ≤ 100 |
| C[C@@H]1CN(c2nc(NC(=O)c3ccc(S(=O)(=O)N[C@@H](C)CO)cc3N3CCC4(CC3)CC4)ccc2OCF)CCO1 [Compound 447] | ≤ 100 |
| C[C@@H]1CN(c2cc(C(=O)Nc3cnc(NS(=O)(=O)CCO)cc3N3CCC4(CC3)CC4)ccc2[N+](=O)[O-])CCO1 [Compound 194] | ≤ 100 |
| COc1ccc(NC(=O)c2ccc(S(=O)(=O)NCCO)cc2N2CCC3(CC2)CC3)nc1N1CCC2(CC2)C1 [Compound 278] | ≤ 100 |
| COc1ccc(C(=O)Nc2cnc(NS(=O)(=O)CCO)cc2N2CCC3(CC2)CC3)nc1OCCC(F)(F)F [Compound 357] | ≤ 100 |
| C[C@@H]1CN(c2nc(NC(=O)c3ccc(NS(=O)(=O)[C@@H](C)CO)cc3N3CCC4(CC3)CC4)ccc2[N+](=O)[O-])CCO1 [Compound 79] | ≤ 100 |
| O=C(Nc1ccc([N+](=O)[O-])c(OC2CCC2)n1)c1ccc(NS(=O)(=O)CCO)cc1N1CCC2(CC1)CC2 [Compound 71] | ≤ 100 |

Other lines, results leading:

| IC50 [nM] | SMILES |
| --- | --- |
| ≤ 100 | COc1ccc(C(=O)Nc2ccc(NS(=O)(=O)CCO)cc2N2CCC3(CC2)CC3)nc1N1CCC(F)CC1 [Compound 329] |
| ≤ 100 | O=C(Nc1ccc(NS(=O)(=O)CCO)cc1N1CCC2(CC1)CC2)c1ccc(OCF)c(N2CCOCC2)n1 [Compound 556] |
| ≤ 100 | C[C@H](CO)S(=O)(=O)Nc1ccc(C(=O)Nc2ccc(OCF)c(N3CCC(F)(F)CC3)n2)c(N2CCC3(CC2)CC3)c1 [Compound 430] |
| ≤ 100 | CC(C)(CO)Nc1nc(NC(=O)c2ccc(S(=O)(=O)NCCO)cc2N2CCC3(CC2)CC3)ccc1OCF [Compound 443] |
| ≤ 100 | O=C(Nc1ccc([N+](=O)[O-])c(N2CCC(F)CC2)c1)c1cnc(NS(=O)(=O)CCO)cc1N1CCC2(CC1)CC2 [Compound 105] |
| ≤ 100 | O=C(Nc1ccc([N+](=O)[O-])c(OC2CCC2)c1)c1ccc(S(=O)(=O)NCCO)cc1N1CCC2(CC1)CC2 [Compound 23] |
| ≤ 100 | COc1ccc(NC(=O)c2cnc(S(=O)(=O)NCCO)cc2N2CCC3(CC2)CC3)nc1N1CCO[C@H](C)C1 [Compound 306] |
| ≤ 100 | CSc1ccc(NC(=O)c2ccc(NS(=O)(=O)CCO)cc2N2CCC3(CC2)CC3)cc1N1CC2CC2C1 (stereo not shown) [Compound 586] |
| ≤ 100 | O=C(Nc1ccc([N+](=O)[O-])c(N2CC3CC3C2)n1)c1cnc(S(=O)(=O)NCCO)cc1N1CCC2(CC1)CC2 (stereo not shown) [Compound 154] |
| ≤ 100 | O=C(Nc1ccc(OCF)c(N2CCC(F)(F)CC2)n1)c1cnc(NS(=O)(=O)CCO)cc1N1CCC2(CC1)CC2 [Compound 481] |
| ≤ 100 | O=C(Nc1ccc(OCF)c(N2CCC(F)(F)CC2)c1)c1cnc(NS(=O)(=O)CCO)cc1N1CCC2(CC1)CC2 [Compound 449] |
| ≤ 100 | C[C@@H]1CN(c2nc(NC(=O)c3ccc(NS(=O)(=O)CCO)cc3N3CCC4(CC3)CC4)ccc2OCF)CCO1 [Compound 418] |
| ≤ 100 | O=C(Nc1ccc([N+](=O)[O-])c(N2CC3CC3C2)n1)c1ccc(S(=O)(=O)NCCO)cc1N1CCC2(CC1)CC2 (stereo not shown) [Compound 90] |
| ≤ 100 | O=C(Nc1ccc([N+](=O)[O-])c(OCCC(F)(F)F)n1)c1cnc(NS(=O)(=O)CCO)cc1N1CCC2(CC1)CC2 [Compound 133] |
| ≤ 100 | COc1ccc(C(=O)Nc2cnc(NS(=O)(=O)CCO)cc2N2CCC3(CC2)CC3)nc1N1CCO[C@@H](C)C1 [Compound 355] |
| ≤ 100 | COc1ccc(C(=O)Nc2cnc(S(=O)(=O)NCCO)cc2N2CCC3(CC2)CC3)nc1OCCC(F)(F)F [Compound 373] |
| ≤ 100 | C[C@@H]1CN(c2cc(C(=O)Nc3ccc(NS(=O)(=O)[C@@H](C)CO)cc3N3CCC4(CC3)CC4)ccc2OCF)CCO1 [Compound 527] |
| ≤ 100 | O=C(Nc1ccc(OCF)c(N2CCC(F)(F)CC2)n1)c1cnc(S(=O)(=O)NCCO)cc1N1CCC2(CC1)CC2 [Compound 497] |
| ≤ 100 | C[C@H]1CN(c2cc(C(=O)Nc3ccc(S(=O)(=O)NCCO)cc3N3CCC4(CC3)CC4)ccc2OCF)CCO1 [Compound 403] |
| ≤ 100 | COc1ccc(C(=O)Nc2cnc(NS(=O)(=O)[C@@H](C)CO)cc2N2CCC3(CC2)CC3)nc1N1CCO[C@H](C)C1 [Compound 367] |
| ≤ 100 | C[C@H]1CN(c2nc(C(=O)Nc3ccc(NS(=O)(=O)CCO)cc3N3CCC4(CC3)CC4)ccc2[N+](=O)[O-])CCO1 [Compound 163] |
| ≤ 100 | O=C(Nc1ccc(OCF)c(N2CCC(F)CC2)c1)c1ccc(S(=O)(=O)NCCO)cc1N1CCC2(CC1)CC2 [Compound 409] |
| ≤ 100 | O=C(Nc1ccc(OCF)c(N2CCOCC2)n1)c1cnc(NS(=O)(=O)CCO)cc1N1CCC2(CC1)CC2 [Compound 492] |
